In US20230071441A1, “CIGARETTE FILTER CONTAINING NATURAL PLANT MATERIAL, PREPARATION METHOD THEREOF, AND CIGARETTE INCLUDING THE FILTER” (KT & G Corporation, priority 2019, published 2023):

How the values were obtained:
[1] = Methyl mercaptan reducing ability (deodorizing activity), headspace GC/MS; details: methyl mercaptan 1 μg/ml 2 ml, pH 7.5, 42 degrees C. 6 minutes; powders/granules 10 mg in 2 ml water; oil/flavoring liquid 2 ml; single ingredient 3 ppm
Description: Using the cigarette prepared in Example 24-1, an experiment was conducted to identify reducing ability for the methyl mercaptan as a representative halitosis ingredient in the cigarette smoke.
Pine needle and rosemary based powders, granules, oils, and flavoring liquid, as well as pine needle based fragrance carrying ingredients, that is, alpha-pinene, bonyl acetate, and rosemary based fragrance carrying ingredients, that is, 1,8-cineol, and borneol were added to the cigarette filter. Thus, a cigarette including the cigarette filter was prepared to identify methyl mercaptan reducing ability.
A content of methyl mercaptan as used was 1 ppm [1 μg/ml] 2 ml. When the pine needle and rosemary based powders and granules were used, 10 mg of the sample was extracted with 2 ml of water and was used. In one example, when using the oil and flavoring liquid based on pine needle and rosemary, 2 ml thereof was used. As for a single ingredient, 3 ppm (3 μg/ml) of the sample was extracted with 2 ml of water and was used.
The analysis experiment of reducing ability for methyl mercaptan included a pretreatment process of the sample, and the analysis process under the headspace sampler condition and the GC/MS-SIM condition. First, 10 mg of pine needle and rosemary based powders and granules sample were put into a 20 ml vial, which was immersed in 2 ml of water for 1 hour. Next, 2 ml of 0.2 M potassium phosphate was added thereto and the pH was adjusted to 7.5. Thereafter, 2 ml of methyl mercaptan (1 μg/ml) was added thereto and the vial was sealed, followed by stirring with a Vortex mixer for 5 seconds. In the headspace sampler, reaction occurred at 42 degrees C. for 6 minutes, and methyl mercaptan isolated into headspace was directly analyzed via GC/MS. An area of methyl mercaptan obtained as a result of the GC/MS analysis was compared with that of the control to determine the reduction percentage.
Deodorizing Activity (DA, %)=[C−S]/C×100 • C: methyl mercaptan area of control • S: Methyl mercaptan area of test group • See Tokita, F. et al. Nippon Nogeikagaku Kaishi 58(6), p 585 to 589 [1984].
The GC/MS instrument based analysis conditions were set as follows. Headspace Sampler conditions were set as follows: culture temperature: 42 degrees C., culture duration: 6 minutes, and transfer liner temperature: 100 degrees C.
The GC/MS-SIM conditions were set as follows: DB-624(60 m, 0.25 mm, 0.25 um) column was used; Oven Temp: 35 degrees C. for 10 minutes; post run: 250 degrees C. for 30 minutes. Injector/Interface Temp was 150 degrees C. or 220 degrees C. For injection, Split 10:1, flow rate 1 ml/min, methyl mercaptan ion (m/z): quantitative ion 47; and qualitative ion 48 and 45. […]

[2] = test system: halitosis ingredient (Hydrogen sulfide) derived from oral microbes; assay: Sedimentation of halitosis ingredient by absorbance analysis (FeS, 700 nm) in cultured saliva; type: cell-based, oral bacteria in saliva; details: cultured saliva 0.5 ml, FeSO4, 24 hours 37 degrees C. anaerobic, absorbance 700 nm
Description: Using the cigarette prepared in Example 24-1, the sedimentation of halitosis ingredient thereof was measured via absorbance analysis. To this end, an experiment was conducted to identify the reducing ability for the halitosis ingredient derived from oral microbes when smoking the cigarette with the filter having the pine needle and rosemary based substances added thereto.
The experiment for measuring the sedimentation of halitosis ingredients was as follows. Hydrogen sulfide in a volatile sulfur compound as mouth odor ingredient generated when cultivating oral bacteria in saliva was combined with iron in a liquid state such that iron sulfide (FeS) in a form of a black precipitate occurred. Thus, the sedimentation of halitosis ingredient was analyzed. First, whole saliva was incubated for 48 hours at 37 degrees C. under anaerobic conditions. Then, […] of oil based test substance or 20 μl of a single ingredient was added to 0.5 ml cultured saliva. 0.05 g surfactant was added thereto. The salvia was mixed with 0.05 g ferrous sulfate II (FeSO4). The mixture was incubated for 24 hours at 37 degrees C. under anaerobic conditions. Thus, absorbance of the culture was measured at 700 nm to determine sedimentation of halitosis ingredients.
However, there was a limit in the detection in the direct analysis of cigarette due to the difference in smoking amount.

| SMILES | Methyl mercaptan Reducing ability (%) [1] | Halitosis ingredient (Hydrogen sulfide) Reducing ability (%) [2] |
| --- | --- | --- |
| CC1(C)C2CCC1(C)C(O)C2 (centres unmarked) [Borneol] | 30.7% | 45.0% |
| CC(=O)O[C@@H]1C[C@@H]2CC[C@@]1(C)C2(C)C [Bonyl acetate] | 41.7% | 36.0% |
| CC1=CCC2CC1C2(C)C (stereo not drawn) [α-Pinene] | 54.7% | 50.0% |
| CC12CCC(CC1)C(C)(C)O2 [1,8-Cineol] | 51.9% | 37.0% |
